Converted amounts (≈) assume the structure as drawn.
Details: buffer; pH 7.4; 200.0 µM

First: COc1ccc(CNC(=O)CN(c2ccccc2OC)S(=O)(=O)c2cccs2)cc1
Second: CC(C)C(OC(=O)c1cccs1)C(=O)NCc1ccc(F)cc1 (stereo unspecified)
The solubility kinetic of the first is lower: 10.7 µg/mL (≈ 24 µM) for the first, > 50.3 µg/mL for the second.

Compared with `COC(=O)Cc1nc(Nc2ccccc2)sc1C`, `COc1cccc(NC(=O)c2cnc(SC)nc2C)c1` is higher in solubility kinetic: 34.3 µg/mL (≈ 131 µM) for the first, > 43.4 µg/mL for the second.

Compared with `Cc1cccn2c(=O)c(/C=C(\C#N)C(N)=O)c(N3CCCCCC3)nc12`, `Cc1cc2cccc(C)c2nc1SCC(=O)NC1CCCCC1` is lower in solubility kinetic: 5.1 µg/mL (≈ 14.5 µM) for the first, < 0.4 µg/mL for the second.

First: C=CCNc1nc(NCc2ccccc2)nc(OCC)n1
Second: Cc1cccc(NCc2ccccc2)c1
The solubility kinetic of the first is 46-fold higher: 36.6 µg/mL (≈ 128 µM) for the first, 0.8 µg/mL (≈ 4.06 µM) for the second.

`O=C(NCCCN1CCCC1=O)Nc1cc(Cl)ccc1Cl` and `O=C(NCCN1CCOCC1)c1ccc(Cl)cc1O` cannot be ordered by solubility kinetic: > 49.5 µg/mL for the first, > 42.7 µg/mL for the second.

`CC1CCCN(C(=O)c2ccc([N+](=O)[O-])o2)C1` (stereo unspecified) and `Cc1cc(=O)oc2cc(OCC(=O)N3CC[C@@]4(O)CCCC[C@H]4C3)ccc12` cannot be ordered by solubility kinetic: > 35.7 µg/mL for the first, > 55.7 µg/mL for the second.

Compared with `CN(C)c1nc(N(C)C)nc(N(C#N)CCCl)n1`, `CN(C)CCCNc1c2ccccc2nc2ccccc12` is higher in solubility kinetic: 19.2 µg/mL (≈ 71.2 µM) for the first, > 41.9 µg/mL for the second.

Going from `O=C(NCc1ccc(F)cc1)N1CCc2ccccc2C1` to `Cc1ccc2nc(SCC(=O)NCc3ccc(F)cc3)[nH]c2c1`, the solubility kinetic falls from 39.3 µg/mL (≈ 138 µM) to 22.4 µg/mL (≈ 68 µM) (1.8-fold).

First: Oc1ccc(NCc2cccs2)cc1
Second: Cc1cccc(N2C(=O)CN(Cc3cccs3)C2=S)c1
The solubility kinetic of the first is 5.8-fold higher: 26.5 µg/mL (≈ 129 µM) for the first, 4.6 µg/mL (≈ 15.2 µM) for the second.

First: COc1cc(OC)cc(C(=O)N[C@H](C(=O)OCC(=O)c2ccc(C)c([N+](=O)[O-])c2)C(C)C)c1
Second: CC(=O)NCCc1nc2cc(NC(=O)c3cccc([N+](=O)[O-])c3)ccc2n1C
The solubility kinetic of the first is 8.2-fold higher: 28.8 µg/mL (≈ 62.8 µM) for the first, 3.5 µg/mL (≈ 9.18 µM) for the second.

First: C=CCOC(=O)c1ccc(N2CCN(c3ccccc3)CC2)nc1
Second: Cc1c(C(=O)OCC(=O)N2CCN(c3ccccc3)CC2)oc2ccccc12
The solubility kinetic of the first is 5-fold lower: 0.9 µg/mL (≈ 2.78 µM) for the first, 4.5 µg/mL (≈ 11.9 µM) for the second.

First: COCCSc1ccccc1C(=O)Nc1ccccc1C#N
Second: COc1ccccc1C(=O)CSc1cccc[n+]1[O-]
The solubility kinetic of the first is higher: > 46.9 µg/mL for the first, 14.4 µg/mL (≈ 52.3 µM) for the second.

First: CC(=O)C1=C(c2ccccc2)NC(=O)NC1c1ccc(O)c(Cl)c1 (stereo unspecified)
Second: COc1ccc(C(C)=O)cc1CN1CC=C(c2ccccc2)CC1
The solubility kinetic of the first is higher: > 51.4 µg/mL for the first, 28.8 µg/mL (≈ 89.6 µM) for the second.

Compared with `O=S(=O)(NC1CCCCC1)c1cccs1`, `Cc1ccc(S(=O)(=O)N2CCCC(C(=O)NC3CCCC3)C2)cc1` (stereo unspecified) is 57-fold lower in solubility kinetic: 28.7 µg/mL (≈ 117 µM) for the first, 0.5 µg/mL (≈ 1.43 µM) for the second.

`CSCCC(NC(=O)COc1ccccc1)C(=O)O` (stereo unspecified) and `CC(=O)c1cccc(NC(=O)COC(=O)c2ccccn2)c1` are within 1.5-fold of each other in solubility kinetic: 31.7 µg/mL (≈ 112 µM) for the first, 35 µg/mL (≈ 117 µM) for the second.

`COc1ccc(Cc2cnc(N)s2)cc1` and `CCC(CC)C(=O)NCc1ccc(OC)cc1` are within 1.5-fold of each other in solubility kinetic: 31.8 µg/mL (≈ 144 µM) for the first, 32.7 µg/mL (≈ 139 µM) for the second.

Going from `CCOC(=O)c1c(/N=C/c2ccc(C)cc2O)sc2c1CCN(C)C2` to `Cc1cc(C(=O)OCC(=O)c2ccccc2)c2ccccc2n1`, the solubility kinetic falls from 11.6 µg/mL (≈ 32.4 µM) to 3.6 µg/mL (≈ 11.8 µM) (3.2-fold).

`CC[C@H](CO)NCCN[C@H](CC)CO.Cl` and `CCCCCCCc1c(O)nc(SCC(=O)O)[nH]c1=O` cannot be ordered by solubility kinetic: > 41.6 µg/mL for the first, 43.9 µg/mL (≈ 146 µM) for the second.

`O=C(NCCS(=O)(=O)N1CCCC1)c1ccccc1` and `O=C(NCCN1CCCCC1)c1ccc(F)cc1Cl` cannot be ordered by solubility kinetic: > 42.4 µg/mL for the first, > 42.7 µg/mL for the second.

First: CCOc1ccc(OCC)c(S(=O)(=O)n2cc(C)nc2CC)c1
Second: COc1ccc(C(=O)Nc2cccc3nc(C)ccc23)cc1OC
The solubility kinetic of the first is 1.6-fold lower: 10.6 µg/mL (≈ 31.3 µM) for the first, 16.6 µg/mL (≈ 51.5 µM) for the second.

Compared with `O=C(CCc1nc(-c2ccc(Cl)cc2)no1)NCC1CCCO1` (stereo unspecified), `O=[N+]([O-])c1ccc(C2=CSC3=NCCN23)cc1` is lower in solubility kinetic: > 50.4 µg/mL for the first, 31.2 µg/mL (≈ 126 µM) for the second.

Compared with `Oc1ccc(Br)cc1CNc1nccs1`, `O=C(Cc1ccsc1)NCc1ccccc1F` is higher in solubility kinetic: 4.4 µg/mL (≈ 15.4 µM) for the first, > 37.4 µg/mL for the second.

Compared with `Cc1c(C=C2C(=O)c3ccccc3C2=O)cc(C#N)n1C`, `CC1CN(C(=O)CCCN2C(=O)c3ccccc3C2=O)CC(C)O1` (stereo unspecified) is higher in solubility kinetic: 0.6 µg/mL (≈ 2.17 µM) for the first, > 49.6 µg/mL for the second.

Going from `CC(=O)c1ccc(N(CC(=O)NC2CCS(=O)(=O)C2)S(=O)(=O)c2ccc(C)cc2)cc1` (stereo unspecified) to `Cc1ccc(S(=O)(=O)NC(=O)Nc2cccc(C)n2)cc1`, the solubility kinetic rises from 10.4 µg/mL (≈ 22.4 µM) to > 45.8 µg/mL.

Compared with `Cc1ccc(C(=O)NC2CCC(C)CC2)s1` (stereo unspecified), `CC(OC(=O)/C=C/c1cccs1)C(=O)NC1CCCCC1C` (stereo unspecified) is 2.1-fold lower in solubility kinetic: 10.2 µg/mL (≈ 43 µM) for the first, 4.9 µg/mL (≈ 15.2 µM) for the second.

`COC(=O)c1cccc(NC(=S)NC(C)C)c1` and `N#Cc1cccc(NC(=O)COC(=O)C2CCC2)c1` cannot be ordered by solubility kinetic: > 37.8 µg/mL for the first, > 38.7 µg/mL for the second.

`CC(OC(=O)/C(C#N)=C/c1ccco1)C(=O)N(C)c1ccccc1` (stereo unspecified) and `COc1ccc(NC(=O)CNC(=O)c2ccco2)cc1` are within 1.5-fold of each other in solubility kinetic: 47.8 µg/mL (≈ 147 µM) for the first, 40.5 µg/mL (≈ 148 µM) for the second.

Compared with `CC(=O)c1cccc(NC(=O)c2cc(=O)c3ccccc3o2)c1`, `CC(=O)CC(=O)Nc1ccc(C(N)=O)cc1` is higher in solubility kinetic: < 0.7 µg/mL for the first, > 33 µg/mL for the second.

Compared with `O=S(=O)(Nc1cccnc1)c1ccc(F)cc1`, `Cc1ccc(C2(C)NC(=O)N(CC(=O)N3CCN(S(=O)(=O)c4cccc([N+](=O)[O-])c4)CC3)C2=O)cc1` (stereo unspecified) is lower in solubility kinetic: > 37.8 µg/mL for the first, 12.7 µg/mL (≈ 24.6 µM) for the second.

First: COC(=O)c1sc(SC)nc1N
Second: CCOC(=O)NC(=O)CN1C(=O)NC2(CCc3ccccc32)C1=O (stereo unspecified)
The solubility kinetic of the first is lower: 30.4 µg/mL (≈ 149 µM) for the first, > 49.7 µg/mL for the second.

`Cc1ccc(Cn2c(N3CCNCC3)nc3c2c(=O)[nH]c(=O)n3C)cc1` gave a solubility kinetic of 51.2 µg/mL (≈ 144 µM).
